Experimental findings from patent US9957271B2, “Substituted bicyclic aza-heterocycles and analogues as sirtuin modulators” (GlaxoSmithKline, LLC, priority 2012, dated 2018) are described below.

Like-named read-outs stand apart in the source and are kept apart here.

This assay addresses T1, SIRT1 (Homo sapiens, UniProt Q96EB6).
T1 sequence (Q96EB6 1-747): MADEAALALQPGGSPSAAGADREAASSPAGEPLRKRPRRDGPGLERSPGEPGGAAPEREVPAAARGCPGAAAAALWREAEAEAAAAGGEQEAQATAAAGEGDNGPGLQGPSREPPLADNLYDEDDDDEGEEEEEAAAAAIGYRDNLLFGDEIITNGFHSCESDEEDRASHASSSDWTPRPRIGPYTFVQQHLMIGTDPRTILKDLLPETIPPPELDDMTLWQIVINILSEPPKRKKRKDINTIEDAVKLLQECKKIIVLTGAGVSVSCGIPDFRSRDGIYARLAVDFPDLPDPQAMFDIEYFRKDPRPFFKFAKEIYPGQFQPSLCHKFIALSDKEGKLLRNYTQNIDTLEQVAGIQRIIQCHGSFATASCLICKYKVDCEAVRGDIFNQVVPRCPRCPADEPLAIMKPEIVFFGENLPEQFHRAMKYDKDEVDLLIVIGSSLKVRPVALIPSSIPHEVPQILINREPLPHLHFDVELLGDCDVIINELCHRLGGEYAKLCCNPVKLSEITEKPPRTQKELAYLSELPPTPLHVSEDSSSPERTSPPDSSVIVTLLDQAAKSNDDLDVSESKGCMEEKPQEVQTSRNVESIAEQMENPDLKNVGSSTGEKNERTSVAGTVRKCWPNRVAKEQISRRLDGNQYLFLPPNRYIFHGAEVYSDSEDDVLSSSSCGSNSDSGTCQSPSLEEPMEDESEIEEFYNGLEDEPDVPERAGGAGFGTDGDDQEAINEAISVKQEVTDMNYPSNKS
The assay is described as follows: TAMRA based mass spectrometry assay of SIRT1 activity. The settings on record: for Emax: read-out: TAMRA % Fold Act. The format is biochemical. The procedure, abridged: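 Deacetylation of a biotinylated, TAMRA-tagged p53-based peptide (0.5 μM) by 10 nM His-tagged SIRT1 with 120 μM βNAD+, 25 °C for 25 min, pH 8 Tris-acetate buffer, across a compound concentration range. Quenched by formic acid and read by mass spec as product peptide or OAADPR; activity relative to DMSO reactions, nicotinamide defining maximal inhibition.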

The mark [1] stands for this setting: concentration of test compound giving 150% activation of SIRT1, TAMRA peptide substrate.
[2] abbreviates: percent maximum fold activation of SIRT1, TAMRA peptide substrate.
[3] abbreviates: TAMRA assay, concentration giving 150% activation of SIRT1.
[4] abbreviates: TAMRA assay, percent maximum fold activation.
Setting [5] is: TAMRA peptide substrate, concentration giving 150% activation of SIRT1.
[6] abbreviates: TAMRA peptide substrate, percent maximum fold activation.

On to `O=C(Nc1nc(CN2CCOCC2)cs1)c1cnc2ccc(-c3cc(F)ccc3F)nn12` [Compound 31], for which the “TAMRA EC1.5 (μM)” value under setting [1] is recorded as “B (EC1.5 1-25 μM)”. For the same molecule, the Emax under setting [2] is < 350%.
`O=C(Nc1ccccn1)c1cnc2ccc(-c3ccccc3C(F)(F)F)nn12` [Compound 16]: under setting [1], the “TAMRA EC1.5 (μM)” value was “A (EC1.5<1 μM)”. Under setting [2], the Emax was ≥ 350%.
The matching figures for `O=C(Nc1cnc2ccc(-c3ccccc3C(F)(F)F)nn12)c1cccc(CN2CCCC2)n1` [Compound 145]: “A (EC1.5<1 μM)” and ≥ 350%.
For `O=C(Nc1cnc2ccc(-c3ccccc3C(F)(F)F)nn12)c1ccnc(CN2CCOCC2)c1` [Compound 148], in that order: “C (EC1.5>25 μM)” and < 350%.
Take `Cc1ccnc(NC(=O)c2cnc3ccc(-c4ccccc4C(F)(F)F)nn23)n1` [Compound 270]: the “TAMRA EC1.5 (μM)” value under setting [3] is recorded as “A (EC1.5<1 μM)”. Besides, under setting [4], the Emax was ≥ 350%.
As to `Cc1cc(C)nc(NC(=O)c2cnn3ccc(-c4ccccc4C(F)(F)F)nc23)c1` [Compound 502], the “TAMRA EC1.5” value under setting [5] is on record as “A (EC1.5<1 μM)”. Also, under setting [6], the Emax is ≥ 350%.
For the molecule `CCOc1n[nH]c(NC(=O)c2c(C)nc3ccc(-c4ccccc4C(F)(F)F)nn23)n1` [Compound 676], the “TAMRA EC1.5 (μM)” value under setting [3] is reported as “A (EC1.5<1 μM)”. Moreover, the Emax under setting [4] is ≥ 350%.
Take `Cc1nc(NC(=O)c2c(C)nc3c(C)cc(-c4ccccc4OC(F)(F)F)nn23)sc1C` [Compound 482]: under setting [5], the “TAMRA EC1.5” value was “A (EC1.5<1 μM)”. The Emax under setting [6] was ≥ 350%.
On to `O=C(Nc1ccccn1)c1cnc2ccc(-c3cccc(Cl)c3F)nn12` [Compound 142], for which the “TAMRA EC1.5 (μM)” value under setting [1] is “B (EC1.5 1-25 μM)”. Also, under setting [2], the Emax was < 350%.
For `Cc1cncc(NC(=O)c2cnc3ccc(-c4ccccc4C(F)(F)F)nn23)c1` [Compound 97], in that order: “B (EC1.5 1-25 μM)” and ≥ 350%.
In the case of `O=C(Nc1cncc(F)c1)c1cnn2ccc(-c3ccccc3OC(F)(F)F)nc12` [Compound 660], the “TAMRA EC1.5 (μM)” value under setting [3] is recorded as “A (EC1.5<1 μM)”. Further, the Emax under setting [4] was ≥ 350%.
Turning to `Cc1cnc(C(=O)Nc2cnn3ccc(-c4ccccc4C(F)(F)F)nc23)s1` [Compound 525], the “TAMRA EC1.5” value under setting [5] is recorded as “A (EC1.5<1 μM)”. Further, under setting [6], the Emax was ≥ 350%.
The matching figures for `Cc1nn2ccc(-c3ccccc3C(F)(F)F)nc2c1NC(=O)c1cccc(CN2CCOCC2)n1` [Compound 573]: “B (EC1.5 1-25 μM)” and < 350%.
As for `CCOc1nccc(NC(=O)c2c(C)nn3ccc(-c4ccccc4C(F)(F)F)nc23)n1` [Compound 786], the “TAMRA EC1.5 (μM)” value under setting [3] was “A (EC1.5<1 μM)”. Besides, the Emax under setting [4] is ≥ 350%.
Regarding `N#Cc1ccccc1-c1ccc2ncc(NC(=O)c3cccc(N4CCOCC4)n3)n2n1` [Compound 337], the “TAMRA EC1.5 (μM)” value under setting [3] is “A (EC1.5<1 μM)”. The Emax under setting [4] is ≥ 350%.
The matching figures for `Cc1cc(NC(=O)c2c(C)nn3ccc(-c4ccccc4C(F)(F)F)nc23)ccn1` [Compound 629]: “A (EC1.5<1 μM)” and ≥ 350%.
As for `O=C(Nc1cnc2ccc(-c3ccccc3OC(F)(F)F)nn12)c1ccccn1` [Compound 312], the “TAMRA EC1.5 (μM)” value under setting [3] was “A (EC1.5<1 μM)”. Further, the Emax under setting [4] was ≥ 350%.
The matching figures for `Cc1cc(OCC2(C)COC2)nc(NC(=O)c2cnc3ccc(-c4ccccc4C(F)(F)F)nn23)n1` [Compound 277]: “A (EC1.5<1 μM)” and ≥ 350%.
In the case of `O=C(Nc1nc(CN2CCOCC2)cs1)c1cnc2ccc(-c3ccc(F)cc3F)nn12` [Compound 42], the “TAMRA EC1.5 (μM)” value under setting [1] is given as “B (EC1.5 1-25 μM)”. Also, the Emax under setting [2] was < 350%.
As to `Cc1nc(C(=O)Nc2c(C)nc3ccc(-c4ccccc4C(F)(F)F)nn23)c(C)s1` [Compound 379], the “TAMRA EC1.5 (μM)” value under setting [3] was “B (EC1.5 1-25 μM)”. In addition, the Emax under setting [4] is ≥ 350%.
Turning to `Cc1nc2ccc(-c3ccccc3C(F)(F)F)nn2c1NC(=O)c1cnccn1` [Compound 376], the “TAMRA EC1.5 (μM)” value under setting [3] is on record as “B (EC1.5 1-25 μM)”. Also, under setting [4], the Emax is < 350%.
Turning to `Cc1cc(C)nc(NC(=O)c2cnc3ccc(-c4ccccc4OC(F)(F)F)nn23)n1` [Compound 399], under setting [5], the “TAMRA EC1.5” value is given as “B (EC1.5 1-25 μM)”. The Emax under setting [6] is ≥ 350%.
Regarding `O=C(Nc1cccc(CN2CCOCC2)n1)c1cnc2ccc(-c3ccccc3F)nn12` [Compound 135], the “TAMRA EC1.5 (μM)” value under setting [1] is reported as “A (EC1.5<1 μM)”. For the same molecule, the Emax under setting [2] was ≥ 350%.
With `Cc1cc(-c2ccccc2C(F)(F)F)nn2c(C(=O)Nc3cccc(N4CC5(COC5)C4)n3)cnc12` [Compound 546], the “TAMRA EC1.5” value under setting [5] is reported as “A (EC1.5<1 μM)”. Besides, the Emax under setting [6] was ≥ 350%.
As to `O=C(Nc1nccc(OCC(O)CO)n1)c1cnc2ccc(-c3ccccc3C(F)(F)F)nn12` (centres unmarked) [Compound 226], the “TAMRA EC1.5 (μM)” value under setting [3] was “B (EC1.5 1-25 μM)”. Under setting [4], the Emax is ≥ 350%.
`Cc1cc(-c2ccccc2C(F)(F)F)nn2c(NC(=O)c3cscn3)cnc12` [Compound 411]: the “TAMRA EC1.5” value under setting [5] is listed as “A (EC1.5<1 μM)”. Besides, the Emax under setting [6] is ≥ 350%.
Take `O=C(Nc1ccnc(N2CCC2)c1)c1cnc2ccc(-c3ccccc3Cl)nn12` [Compound 96]: the “TAMRA EC1.5 (μM)” value under setting [1] is recorded as “A (EC1.5<1 μM)”. Also, the Emax under setting [2] was ≥ 350%.
`Cc1nc2c(C)cc(-c3ccccc3C(F)(F)F)nn2c1C(=O)Nc1cccc(N2CC3(COC3)C2)n1` [Compound 562]: under setting [5], the “TAMRA EC1.5” value is reported as “A (EC1.5<1 μM)”. For the same molecule, the Emax under setting [6] was ≥ 350%.
`COc1nccc(NC(=O)c2c(C)nn3ccc(-c4ccccc4C(F)(F)F)nc23)n1` [Compound 793, N-(2-methoxypyrimidin-4-yl)-2-methyl-5-(2-(trifluoromethyl)phenyl)pyrazolo[1,5-a]pyrimidine-3-carboxamide]: the “TAMRA EC1.5 (μM)” value under setting [3] is “A (EC1.5<1 μM)”. In addition, the Emax under setting [4] is ≥ 350%.
In the case of `COc1nccc(NC(=O)c2c(C)nc3c(C)cc(-c4ccccc4C(F)(F)F)nn23)n1` [Compound 543], the “TAMRA EC1.5” value under setting [5] was “A (EC1.5<1 μM)”. In addition, the Emax under setting [6] is ≥ 350%.
Turning to `O=C(Nc1ccc(N2CCOCC2)nc1)c1cnc2ccc(-c3ccccc3C(F)(F)F)nn12` [Compound 216], under setting [3], the “TAMRA EC1.5 (μM)” value is reported as “B (EC1.5 1-25 μM)”. The Emax under setting [4] is ≥ 350%.
Take `CS(=O)(=O)c1ccccc1-c1ccc2ncc(C(=O)Nc3cccc(N4CCOCC4)n3)n2n1` [Compound 185]: under setting [1], the “TAMRA EC1.5 (μM)” value is on record as “B (EC1.5 1-25 μM)”. In addition, the Emax under setting [2] was < 350%.
As for `Cc1nn2ccc(-c3ccccc3C(F)(F)F)nc2c1C(=O)Nc1nccs1` [Compound 709], the “TAMRA EC1.5 (μM)” value under setting [3] is “A (EC1.5<1 μM)”. Also, the Emax under setting [4] is ≥ 350%.
For the molecule `O=C(Nc1cnc2ccc(-c3ccccc3C(F)(F)F)nn12)c1ccnc(N2CCCC2)c1` [Compound 124], under setting [1], the “TAMRA EC1.5 (μM)” value is given as “A (EC1.5<1 μM)”. The Emax under setting [2] was ≥ 350%.
For `CCOc1ccc(NC(=O)c2c(C)nc3ccc(-c4cccc(F)c4)nn23)nn1` [Compound 762], the “TAMRA EC1.5 (μM)” value under setting [3] is “B (EC1.5 1-25 μM)”. Moreover, the Emax under setting [4] is < 350%.
For the molecule `O=C(Nc1cnc2ccc(-c3ccccc3C(F)(F)F)nn12)c1cccc(N2CCC2)n1` [Compound 144], under setting [1], the “TAMRA EC1.5 (μM)” value is “A (EC1.5<1 μM)”. Moreover, the Emax under setting [2] is ≥ 350%.
On to `Cc1cc(C)nc(C(=O)Nc2cnn3ccc(-c4ccccc4OC(F)(F)F)nc23)c1` [Compound 750], for which, under setting [3], the “TAMRA EC1.5 (μM)” value is reported as “A (EC1.5<1 μM)”. Also, under setting [4], the Emax is ≥ 350%.
On to `O=C(Nc1cncnc1)c1cnc2ccc(-c3ccccc3C(F)(F)F)nn12` [Compound 106], for which the “TAMRA EC1.5 (μM)” value under setting [1] was “B (EC1.5 1-25 μM)”. Moreover, the Emax under setting [2] was < 350%.
For `O=C(Nc1cccc(OCC(O)CO)n1)c1c(O)nc2ccc(-c3ccccc3C(F)(F)F)nn12` (centres unmarked) [Compound 344], the “TAMRA EC1.5 (μM)” value under setting [3] is “B (EC1.5 1-25 μM)”. The Emax under setting [4] was < 350%.
`Cc1cc(C)nc(C(=O)Nc2cnc3c(C)c(C)c(-c4ccccc4C(F)(F)F)nn23)n1` [Compound 420]: the “TAMRA EC1.5” value under setting [5] was “A (EC1.5<1 μM)”. Also, the Emax under setting [6] is ≥ 350%.
On to `Cc1cc(C)nc(NC(=O)c2cnc3ccc(-c4ccccc4OCC(O)CO)nn23)c1` (centres unmarked) [Compound 371], for which the “TAMRA EC1.5 (μM)” value under setting [3] is on record as “A (EC1.5<1 μM)”. Moreover, the Emax under setting [4] is ≥ 350%.
As for `CS(=O)(=O)c1ccccc1-c1ccc2ncc(C(=O)Nc3ccccn3)n2n1` [Compound 188], the “TAMRA EC1.5 (μM)” value under setting [1] is “C (EC1.5>25 μM)”. Also, under setting [2], the Emax is < 350%.
`O=C(Nc1ccccn1)c1cnc2ccc(-c3cccc(N4CCOCC4)c3)nn12` [Compound 10]: the “TAMRA EC1.5 (μM)” value under setting [1] is “B (EC1.5 1-25 μM)”. For the same molecule, the Emax under setting [2] is < 350%.
